From PubChem BioAssay AID492957 (The Scripps Research Institute Molecular Screening Center, 2010)
Calls of active or inactive are those of the source.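 The calls were made as follows: active = IC50 at or below 10 µM; inactive = IC50 above 10 µM.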

Test system: E. coli V66 + T4 gene 2 mutant phage, OD growth
Assay: RecBCD inhibition via phage-restricted bacterial growth – absorbance, V66 E. coli, mutant T4 phage, counter-screen for AddAB inhibitor project, dose response (AID 492957)

Question: For `O=C(NCc1cccnc1)c1ccc([N+](=O)[O-])o1`, which IC50 is on record?
Answer: 86.4 µM (inactive)
